The subject of series [1] is SKOV-3 cells. The experiment in a line: Adhesion of SKOV-3 cells onto extracellular matrix proteins (24-well plates, cell counting). Type of series: cell-based, Human. The protocol:
(§1) Adhesion assays were performed using 24 multi-well plates coated with 1% BSA, 5 μg mL vitronectin (Vn), 5 μg mL fibronectin (Fn), 5 μg mL laminin (Lm) or 15 μg mL collagen (Coll) diluted in serum-free medium. Sub-confluent cells were harvested by a mild trypsinization, incubated with 10% FBS / DMEM for 1 h at 37 °C, 5% CO2, acid treated with a buffer containing 50 mM glycin-HC1, 0.1 M NaCl, pH 3 for 4 min at 22 °C, to remove receptor-bound ligands, and counted. Viable cells (2 × 10^5 cells per well) were plated in serum-free medium, in the absence or presence of 2 μg/mL R3 mAb recognizing the DI uPAR domain, 2 μg/mL399 anti-uPAR (American Diagnostica), 2 μg/mL anti-uPAR84-95 (PRIMM), 2 μg/mL anti-α-tubulin (Cell Signaling) Abs or 10 nM RI-3, and allowed to adhere for 2 h at 37 °C, 5% CO2. […] At the end of the assay, adherent cells were removed with 0.05% trypsin, and counted. The number of adherent cells was expressed as a percentage of the basal cell adhesion (CTRL). The experiments were performed at least three times in triplicate.

For series [2], the system named is SKOV-3 cells. The experiment in a line: GFP-SKOV-3 cell adhesion onto mesothelium (HPMC monolayer). The series is classed as cell-based, Human. The note with it: means of three independent experiments in triplicate. On the procedure: HPMCs (1 × 10^5 cells/well) suspended in growth medium, were seeded in 24-well plates and allowed to adhere for about 20 h until they form a confluent monolayer, prior to seeding GFP-tagged EOC cells suspended in growth medium plus diluents or 10 nM RI-3. At the indicated times, plates were accurately washed with PBS and cell-associated fluorescence was assessed by a fluorescence plate reader a fluorescence plate reader (Victor 3, Perkin Elmer), using 485 nm excitation and 535 nm emission filters. The experiments were performed three times in triplicate.

In another series the test system is A2780 cells. The series can be described thus: HPMC invasion by A2780 cells monitored in real time. Type of series: cell-based, Human. The note with it: 10 nM RI-3; xCELLigence; quadruplicate representative of 2 replicates. The protocol:
HPMCs (5 × 10^3 cells/well) suspended in growth medium, were seeded in E-16-well plates and allow to adhere for 18–20 h until they form a confluent monolayer, prior to seeding EOC cells (2 × 10^4 cells/well) in growth medium plus/minus 10 nM RI-3. When HPMCs are challenged with invading cells, there is a drop in electrical resistance within 2–4 h which is monitored in real-time as the Cell Index changes due to the rupture of mesothelium. The experiments were performed three times in quadruplicate.
Supplementary file 13046_2019_1465_MOESM1_ESM.zip: Additional file 1: Figure S1. Adhesion and mesothelial invasion properties of uPAR and FPR1 lacking EOC cells. a. […] analysis of human ovarian carcinoma A2780 cells with (CD87)-APC-conjugated anti-uPAR or PE-conjugated FPR1 antibodies. b. Cell adhesion of A2780 cells on 1% BSA (CTRL), Vn-, Fn-Lm or Coll-coated plates, in the presence or the absence of 10 nM RI-3. The number of adherent cells was expressed as a percentage of CTRL. Data are the means ± SD of three independent experiment. c. Mesothelium invasion by A2780 cells. […] Then, A2780 cells suspended in growth medium plus/minus 10 nM RI-3 were seeded onto the mesothelial cell monolayer and invasion of mesothelium by A2780 cells was monitored in real-time as changes in Cell Index due to breaking of the monolayer integrity. […]

Series [3] relates to SKOV-3 and primary EOC cells. The experiment in a line: Cell adhesion to vitronectin, SKOV-3 and primary EOC cells (summary statement). Type of series: cell-based, human. The note with it: pre-exposure. The protocol:
as §1
This assay was performed using E-16-well plates and the xCELLigence Real Time Cell Analysis technology. […] The impedance value of each well was automatically monitored in real-time for at least 2 h and expressed as a cell index value. […]

For series [4] the following is noted: cited from earlier work. From the text:
(§2) Human FPR1, originally identified in neutrophils, monocytes and macrophages, has been shown in recent years, to be expressed also in many non-myelocytic cells. Aberrant expression of FPR1 was detected in tumors of different origin and reported as a negative prognostic factor [29–31]. While the role of uPAR in favoring intra-abdominal dissemination of ovarian cancer cells is largely documented, no data regarding expression and possible role of FPR1 on the surface of ovarian cancer cells are currently available. In the past years, we generated synthetic peptides containing the s ...

The test system of series [5] is FPR1. The settings on record: ref [36], cited from earlier work.
Source text: as §2

In series [6] the test system is p38 MAPK and PI3K/AKT signaling cascades. The note with it: ref [36]; cited from earlier work.
Source text: as §2

Series [7] relates to sarcoma and melanoma cells. The note with it: dose dependent, ref [36], [37]; cited from earlier work.
Source text: as §2

The conditions of series [8]: ref [36]; cited from earlier work. From the text:
On the other hand, despite a variety of natural and synthetic compounds that interfere with FPR1-dependent pathways antagonizing FPR1functions have been described, the majority had off-target effects, discouraging their clinical development.

The test system of series [9] is FPR1. The settings on record: FPR1 overexpressing rat basophilic leukaemia RBL-2H3/ETFR cells; stated also as conclusion for primary EOC cells; ref [38]; cited from earlier work. The text has this: In order to obtain primary cultures of EOC cells, representative fragments of tissue samples were fragmented and cells recovered, as described in the Methods. By enzymatic digestion of a HGSC tissue sample (patient #5), a primary cell culture expressing high levels of both uPAR and FPR1 on cell surface as shown by IHC, was obtained (Figs. 4 and 5a). Subsequent sub-cloning of isolated cell clusters (Fig. 5b) followed by five passages allowed us to obtain an adherent, homogeneous, CD326 positive cell population. These EOC cells express a considerable amount of both uPAR and FPR1 as shown by West ...

Non-standard residues stand in square brackets, D forms with d. Aib = CC(C)(N)C(=O)O

As to “Ac-[dY][dR][Aib][dR]-NH2 [RI-3, retro-inverso peptide, uPAR/FPR1 antagonist]”, the “basal cell adhesion and adhesion to Coll-, Fn- and Lm-coated plates” value with SKOV-3 cells [1] (SKOV-3, 10 nM RI-3, 2 h, BSA (basal), collagen, fibronectin, laminin, three independent experiments) is “neither affected basal cell adhesion, nor cell adhesion to Coll- Fn- and Lm-coated plates”. In addition, the “extent of cell adhesion onto Vn with RI-3” value in the series on SKOV-3 cells [1] (SKOV-3, 10 nM RI-3, Fig. 2d (2 h, cell counting) and Fig. 2e (real time 2 h)) is “dramatically reduced the extent of cell adhesion onto Vn”. Besides, the “reduction of cell associated fluorescence (SKOV-3 adhesion to mesothelium)” value worked out at 57% with SKOV-3 cells [2] (10 nM RI-3, after 5 min); 47% with SKOV-3 cells [2] (10 nM RI-3, after 10 min); 58% in the series on SKOV-3 cells [2] (10 nM RI-3, after 20 min); 54% in the series on SKOV-3 cells [2] (10 nM RI-3, after 40 min). Also, in the series on A2780 cells, the “A2780 cell crossing of mesothelium” value is reported as “ineffective”. Also, the “extent of cell adhesion to vitronectin (abstract)” value in [3] is reported as “decreases to basal level”. The “stability in human serum” value in [4] was “stable in human serum”. For the same substance, the “competition for binding to FPR1” value with FPR1 [5] (competes with fMLF and SRSRY) was “competes with fMLF and SRSRY for binding to FPR1”. In addition, the “SRSRY-induced FPR1 internalization” value in the series on FPR1 [5] is given as “preventing SRSRY-induced FPR1 internalization”. Also, the “p38 MAPK and PI3K/AKT signaling cascades” value in series [6] is “preventing SRSRY-induced FPR1 internalization as well as p38 MAPK and PI3K/AKT signaling cascades”. For the same substance, the “concentration range for overall 50% reduction of cell invasion” value in series [7] is given as “nanomolar range”. In addition, in series [7], the “concentration range for overall 50% reduction of cell migration” value is reported as “picomolar”. The cell proliferation entry in series [8] was “does not affect cell proliferation”. Moreover, the “FPR1 binding and blockade of internalization and function” value in the series on FPR1 [9] was “binds to FPR1 blocking its internalization and function”.

These data come from PMC6839174, “Targeting the Formyl Peptide Receptor type 1 to prevent the adhesion of ovarian cancer cells onto mesothelium and subsequent invasion” (Journal of Experimental & Clinical Cancer Research : CR, 2019).
